How the values were obtained:
HeLa = assay: Proliferation assay (crystal violet), HeLa; assay type: cell-based; details: Homo sapiens, HeLa, 96 h, HeLa cells; 4 days incubation; crystal violet staining; read-out: IC50 inhibition of proliferation, HeLa
Procedure, shortened: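 Cells plated at 1000-5000/well with 10% FCS, treated after 24 h with compound at 0.001-10 μM (0.5% DMSO) for 4 days. Glutaraldehyde-fixed, crystal violet-stained, A595 normalised to zero-point plate (0%) and untreated cells (100%); IC50 by 4-parameter fit.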

[1] = molecular target: T1, catalytic domain of human Bub1 (amino acids 704-1085) (Homo sapiens, UniProt O43683); assay: Bub1 kinase assay (TR-FRET); assay type: biochemical; details: 10 μM ATP, avg, read-out: Bub1 avg (IC50 [mol/l])
T1 construct: catalytic domain of human Bub1 (amino acids 704-1085); His6 (N); made in house; host or cells: insect cells (Hi5)
T1 sequence (O43683 704-1085): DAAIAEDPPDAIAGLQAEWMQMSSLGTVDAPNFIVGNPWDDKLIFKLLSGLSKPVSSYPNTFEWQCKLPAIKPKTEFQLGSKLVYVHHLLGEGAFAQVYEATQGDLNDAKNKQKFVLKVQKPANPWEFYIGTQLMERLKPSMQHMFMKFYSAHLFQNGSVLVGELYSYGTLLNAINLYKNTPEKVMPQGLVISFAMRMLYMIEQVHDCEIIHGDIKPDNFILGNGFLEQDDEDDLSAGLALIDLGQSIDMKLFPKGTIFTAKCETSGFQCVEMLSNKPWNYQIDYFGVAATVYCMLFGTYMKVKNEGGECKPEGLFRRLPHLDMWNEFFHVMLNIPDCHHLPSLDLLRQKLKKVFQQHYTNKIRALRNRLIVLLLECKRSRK
Procedure, shortened: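 Readout is the 665/620 nm TR-FRET ratio from anti-phosphoserine antibody, Eu-labelled anti-mouse IgG and streptavidin-XL665, scaled between no-enzyme and uninhibited controls. Reaction: 1 μM biotinylated peptide, 10 μM ATP, 60 min, 22 °C, after 15 min compound preincubation with His6-Bub1 (704-1085, insect-expressed, ~200 ng/ml).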

Compound	IC50 (HeLa) [µM]	IC50 [1] [µM]
Cc1nsc(Nc2ccc(C#N)cn2)c1C(=O)Nc1ccc(OC2CCNCC2)nc1 [Example 28, 5-[(5-Cyanopyridin-2-yl)amino]-3-methyl-N-[6-(piperidin-4-yloxy)pyridin-3-yl]-1,2-thiazole-4-carboxannide]	3.7	≥ 20
Cc1nsc(Nc2ccc(C#N)cn2)c1C(=O)Nc1ccc(OC2CCN(CCF)CC2)nc1 [Example 29, 5-[(5-Cyanopyridin-2-yl)amino]-N-(6-{[1-(2-fluoroethyl)piperidin-4-yl]oxy}pyridin-3-yl)-3-methyl-1,2-thiazole-4-carboxamide]	10	≥ 20
Cc1nsc(Nc2ccc(C#N)cn2)c1C(=O)Nc1ccc(OC2CCN(CC(F)(F)F)CC2)nc1 [Example 30, 5-[(5-Cyanopyridin-2-yl)amino]-3-methyl-N-(6-{[1-(2,2,2-trifluoroethyl)piperidin-4-yl]oxy}pyridin-3-yl)-1,2-thiazole-4-carboxamide]	0.34	≥ 20
Cc1nsc(Nc2cnc3ccccc3n2)c1C(=O)Nc1ccc(OC2CCCN(C(=O)OC(C)(C)C)C2)nc1 (centres unmarked) [Example 31, tert-Butyl 3-{[5-({[3-methyl-5-(quinoxalin-2-ylamino)-1,2-thiazol-4-yl]carbonyl}-amino)pyridin-2-yl]oxy}piperidine-1-carboxylate]	1.2	≥ 20
Cc1nsc(Nc2cnc3ccccc3n2)c1C(=O)Nc1ccc(OC2CCCNC2)nc1 (centres unmarked) [Example 32, 3-Methyl-N-[6-(piperidin-3-yloxy)pyridin-3-yl]-5-(quinoxalin-2-ylamino)-1,2-thiazole-4-carboxannide]	8	≥ 20
Cc1nsc(Nc2cnc3ccccc3n2)c1C(=O)Nc1ccc(OC2CCCN(CC(F)F)C2)nc1 (centres unmarked) [Example 33, N-(6-{[1-(2,2-Difluoroethyl)piperidin-3-yl]oxy}pyridin-3-yl)-3-methyl-5-(quinoxalin-2-ylamino)-1,2-thiazole-4-carboxamide]	2.4	≥ 20
Cc1nsc(Nc2cc(C#N)ccn2)c1C(=O)Nc1ccc(OC2CCCN(C(=O)OC(C)(C)C)C2)nc1 (centres unmarked) [Example 34, tert-Butyl 3({5-[({5-[(4-cyanopyridin-2-yl)amino]-3-methyl-1,2-thiazol-4-yl}-carbonyl)amino]pyridin-2-yl}oxy)piperidine-1-carboxylate]	3.1	≥ 20
Cc1nsc(Nc2cnc(C(F)(F)F)cn2)c1C(=O)Nc1ccc(OCCNCCC(F)(F)F)nc1 [Example 323, 3-methyl-5-{[5-(trifluoromethyl)pyrazin-2-yl]amino}-N-(6-{2-[(3,3,3-trifluoropropyl)amino]ethoxy}pyridin-3-yl)-1,2-thiazole-4-carboxamide]	0.95	18
Cc1nsc(Nc2cnc(C(F)(F)F)cn2)c1C(=O)Nc1ccc(OC2CCN(C(CF)CF)CC2)nc1 [Example 324, N-(6-{[1-(1,3-difluoropropan-2-yl)piperidin-4-yl]oxy}pyridin-3-yl)-3-methyl-5-{[5-(trifluoromethyl)pyrazin-2-yl]amino}-1,2-thiazole-4-carboxamide]	0.87	19
Cc1nsc(Nc2cnc(C(F)(F)F)cn2)c1C(=O)Nc1ccc(OCC2CCCN(CCF)C2)nc1 (centres unmarked) [Example 325, N-(6-{[1-(2-fluoroethyl)piperidin-3-yl]methoxy}pyridin-3-yl)-3-methyl-5-{[5-(trifluoromethyl)pyrazin-2-yl]amino}-1,2-thiazole-4-carboxamide]	0.62	≥ 20
Cc1nsc(Nc2cnc(C(F)(F)F)cn2)c1C(=O)Nc1ccc(OCC2CCCN(CC(F)(F)F)C2)nc1 (centres unmarked) [Example 326, 3-methyl-N-(6-{[1-(2,2,2-trifluoroethyl)piperidin-3-yl]methoxy}pyridin-3-yl)-5-{[5-(trifluoromethyl)pyrazin-2-yl]amino}-1,2-thiazole-4-carboxamide]	0.3	≥ 20
Cc1nsc(Nc2cnc(C(F)(F)F)cn2)c1C(=O)Nc1ccc(OCC2CCCN(CC(F)F)C2)nc1 (centres unmarked) [Example 327, N-(6-{[1-(2,2-difluoroethyl)piperidin-3-yl]methoxy}pyridin-3-yl)-3-methyl-5-{[5-(trifluoromethyl)pyrazin-2-yl]amino}-1,2-thiazole-4-carboxamide]	0.37	≥ 20
Cc1nsc(Nc2cnc(C(F)(F)F)cn2)c1C(=O)Nc1ccc(OCC2CCCN(CCC(F)(F)F)C2)nc1 (centres unmarked) [Example 328, 3-methyl-5-{[5-(trifluoromethyl)pyrazin-2-yl]amino}-N-(6-{[1-(3,3,3-trifluoropropyl)piperidin-3-yl]methoxy}pyridin-3-yl)-1,2-thiazole-4-carboxamide]	0.36	≥ 20
Cc1nsc(Nc2cnc(C(F)(F)F)cn2)c1C(=O)Nc1ccc(OC2CCCN(CCF)C2)nc1 (centres unmarked) [Example 329, N-(6-{[1-(2-fluoroethyl)piperidin-3-yl]oxy}pyridin-3-yl)-3-methyl-5-{[5-(trifluoromethyl)pyrazin-2-yl]amino}-1,2-thiazole-4-carboxamide]	1.3	≥ 20
Cc1nsc(Nc2cnc(C(F)(F)F)cn2)c1C(=O)Nc1ccc(OC2CCCN(CC(F)F)C2)nc1 (centres unmarked) [Example 330, N-(6-{[1-(2,2-difluoroethyl)piperidin-3-yl]oxy}pyridin-3-yl)-3-methyl-5-{[5-(trifluoromethyl)pyrazin-2-yl]amino}-1,2-thiazole-4-carboxamide]	1.2	≥ 20
Cc1nsc(Nc2cnc(C(F)(F)F)cn2)c1C(=O)Nc1ccc(OCCN(C)CCF)nc1 [Example 348, N-(6-{2-[(2-fluoroethyl)(methyl)amino]ethoxy}pyridin-3-yl)-3-methyl-5-{[5-(trifluoromethyl)pyrazin-2-yl]amino}-1,2-thiazole-4-carboxamide]	1	–
Cc1nsc(Nc2cnc(C(F)(F)F)cn2)c1C(=O)Nc1ccc(OCCN(C)CC(F)F)nc1 [Example 349, N-(6-{2-[(2,2-difluoroethyl)(methyl)amino]ethoxy}pyridin-3-yl)-3-methyl-5-{[5-(trifluoromethyl)pyrazin-2-yl]amino}-1,2-thiazole-4-carboxamide]	0.35	–
Cc1nsc(Nc2cnc(C(F)(F)F)cn2)c1C(=O)Nc1ccc(OCCN(C)CC(F)(F)F)nc1 [Example 350, 3-methyl-N-(6-{2-[methyl(2,2,2-trifluoroethyl)amino]ethoxy}pyridin-3-yl)-5-{[5-(trifluoromethyl)pyrazin-2-yl]amino}-1,2-thiazole-4-carboxamide]	0.28	–
Cc1nsc(Nc2cnc(C(F)(F)F)cn2)c1C(=O)Nc1ccc(OCCCN(C)CC(F)F)nc1 [Example 353, N-(6-{3-[(2,2-difluoroethyl)(methyl)amino]propoxy}pyridin-3-yl)-3-methyl-5-{[5-(trifluoromethyl)pyrazin-2-yl]amino}-1,2-thiazole-4-carboxamide]	0.33	–
Cc1nsc(Nc2cnc(C(F)(F)F)cn2)c1C(=O)Nc1ccc(OCCCN(C)CC(F)(F)F)nc1 [Example 354, 3-methyl-N-(6-{3-[methyl(2,2,2-trifluoroethyl)amino]propoxy}pyridin-3-yl)-5-{[5-(trifluoromethyl)pyrazin-2-yl]amino}-1,2-thiazole-4-carboxamide]	0.33	–
Cc1nsc(Nc2cnc(C(F)(F)F)cn2)c1C(=O)Nc1ccc(OCCCN(C)CCC(F)(F)F)nc1 [Example 355, 3-methyl-N-(6-{3-[methyl(3,3,3-trifluoropropyl)amino]propoxy}pyridin-3-yl)-5-{[5-(trifluoromethyl)pyrazin-2-yl]amino}-1,2-thiazole-4-carboxamide]	0.33	–
Cc1nsc(Nc2cnc(C(F)(F)F)cn2)c1C(=O)Nc1ccc(O[C@@H]2CCN(CC(F)F)C[C@H]2F)nc1 [Example 366, N-(6-{[(3R,4R)-1-(2,2-difluoroethyl)-3-fluoropiperidin-4-yl]oxy}pyridin-3-yl)-3-methyl-5-{[5-(trifluoromethyl)pyrazin-2-yl]amino}-1,2-thiazole-4-carboxamide]	0.3	–
Cc1nsc(Nc2cnc(C(F)(F)F)cn2)c1C(=O)Nc1ccc(O[C@@H]2CCCN(CC(F)F)C2)nc1 [Example 385, N-(6-{[(3R)-1-(2,2-difluoroethyl)piperidin-3-yl]oxy}pyridin-3-yl)-3-methyl-5-{[5-(trifluoromethyl)pyrazin-2-yl]amino}-1,2-thiazole-4-carboxamide]	0.35	–
Cc1nsc(Nc2cnc(C(F)(F)F)cn2)c1C(=O)Nc1ccc(O[C@H]2CCCN(CC(F)F)C2)nc1 [Example 388, N-(6-{[(3S)-1-(2,2-difluoroethyl)piperidin-3-yl]oxy}pyridin-3-yl)-3-methyl-5-{[5-(trifluoromethyl)pyrazin-2-yl]amino}-1,2-thiazole-4-carboxamide]	0.37	–
Cc1nsc(Nc2cnc(C(F)(F)F)cn2)c1C(=O)Nc1ccc(O[C@H]2CCCN(CC(F)(F)F)C2)nc1 [Example 389, 3-methyl-N-(6-{[(3S)-1-(2,2,2-trifluoroethyl)piperidin-3-yl]oxy}pyridin-3-yl)-5-{[5-(trifluoromethyl)pyrazin-2-yl]amino}-1,2-thiazole-4-carboxamide]	0.31	–
Cc1nsc(Nc2cnc(C(F)(F)F)cn2)c1C(=O)Nc1ccc(O[C@H]2CCCN(CCC(F)(F)F)C2)nc1 [Example 390, 3-methyl-5-{[5-(trifluoromethyl)pyrazin-2-yl]amino}-N-(6-{[(3S)-1-(3,3,3-trifluoropropyl)piperidin-3-yl]oxy}pyridin-3-yl)-1,2-thiazole-4-carboxamide]	0.32	–
